Test results published in patent US12351819B2, “Method for removing undifferentiated pluripotent stem cells” (priority 2017, dated 2025).

How the values were obtained:
H9 hESC-MSCs = conditions: 2.5 μM, 24 hours
Method: (§1) The supernatants of cells treated with digoxin […], lanatoside C 2.5 μm, or DMSO solvent control for 24 hours were harvested. The released LDH was measured using CytoTox 96 […] assay according to the manufacture's instruction (Promega, Southampton, UK). The supernatants and reagents were incubated at room temperature for 20 minutes and then the reaction was stopped by Stop Solution. The absorbance at 490 nm was measured using a plate-reading spectrophotometer (Benchmark Plus Microplate Spectrophotometer System, BIO-RAD, CA, USA).
According to the report from Dr. Xu and colleagues^30, hESCs were cultured with 10 ng/ml BMP4 and 1 μM of A8301 for 5 days. Next, the cells were passaged on the gelatin-coated plate and the culture medium was switched to MSC culture medium [Minimum Essential Medium Eagle Alpha Modification (αMEM) medium supplemented with 20% fetal bovine serum (FBS), 1-glutamine (Gluta-MAX), 1× nonessential amino acids]. Cells were expanded within passage 5, and CD73^+ (11-0793, ThermoFisher Scientific) and CD105^+ (12-1057, ThermoFisher Scientific) double positive cells were sorted.
hESC-derived MSCs were trypsinized and washed with PBS. Then cells were incubated with anti-human CD73 FITC (ThermoFisher Scientific) and anti-human CD105 PE (ThermoFisher Scientific) for 15 minutes at 4° C. Cells were washed cells with PBS for three times. CD73^+/CD105^+ cells were sorted with the cell sorter (BD FACSAria II, BD Biosciences). Sorted cells were maintained in MSC culture medium.

[1] = system: hESC-hepatocyte endoderm cells; experiment: LDH cytotoxicity assay in hESC-derived hepatocyte endoderm; type: cell-based, human; conditions: Table 1
Method: This protocol followed a method previously published in Nature Protocols^36. The hESCs were detached by 0.5 mM EDTA (Life Technologies, Camarillo, C, USA), seeded on VTN-N coated culture plates (Corning) and maintained for 48 hours in mTeSR 1 medium. Then, the medium was refreshed daily for all following steps. On days 1-2, the medium was replaced with fresh CDM-PVA (consisting of 0.5 g of PVA (Sigma) dissolved in 250 ml of IMDM/F-12, GlutaMAX (Invitrogen), 250 ml of IMDM (Invitrogen), 5 ml of chemically defined lipid concentrate (Invitrogen), 20 of thioglycerol 97% (Sigma), 350 of insulin (10 mg/ml; Roche), 250 of transferrin (30 mg/ml; Roche) plus Activin A (100 ng/ml; R&D), bFGF (80 ng/ml; R&D), BMP4 (10 ng/ml; R&D), and […] of LY-294002 (Promega). On day 3, the cells were differentiated in RPMI Medium supplemented with Activin A (100 ng/ml) and bFGF (80 ng/ml). On days 4-6, the cells were expanded in RPMI medium supplemented with Activin A (50 ng/ml). On day 7, the cells were passaged and re-plated 105,000 cells/cm^2 cells in VTN-N coated culture plates in RPMI containing Activin A (50 ng/ml) and Y-27632 2HCl (10 μM Selleck-chem, Houston, TX, USA and Munich, Germany). Then, the cells were maintained in RPMI+Activin A (50 ng/ml) on days 8-11. The cells were differentiated into the hepatocyte endoderm and analyzed following the drug treatments. The expression of alpha-fetoprotein (A0008, Dako, Santa Clara, CA, USA) was analyzed in the hepatocyte endoderm via immunofluorescence staining.

hiPSCs = conditions: Table 1; hiPSCs
Method: as §1
hiPSC-derived endothelial cells were prepared according in a previous report^34. The hiPSCs were maintained in mTeSR 1 medium ([…] Technologies, Vancouver, Canada) on VTN-N coated plates (Thermo, Wilmington, DE, USA). First, for the stepwise induction of differentiation, we performed a mesoderm induction of hiPSCs seeded in mesoderm induction medium for 48 hours (basal medium with […], […], and 2 ng/ml of Activin A; basal medium was composed of 12 g/L of DMEM/F-12, 3.56 g/L of HEPES, 1.742 g/L of sodium bicarbonate, 14 μg/L of sodium selenite, 10.7 mg/L of recombinant transferrin, 19.4 mg/L of recombinant insulin, and 64 mg/L of L-Ascorbic acid 2-phosphate sesquimagnesium salt hydrate). Second, for the mesoderm to endothelium transition, mesoderm cells were reseeded in vasculogenic medium (basal medium with 2 mg/ml of PVA plus 20 ng/ml of hVEGF-A) for an additional 72 hours. All differentiated cells were plated on VTN pre-coated culture plate dishes. The endothelial cells were analyzed on day 5 by flow cytometry staining with the CD31 (PECAM1, ThermoFisher Scientific, Wilmington, DE, USA) and CD144 (CDH5, ThermoFisher Scientific) antibodies.

hESCs (H9) = conditions: for cytotoxic effect (LDH release) in hESCs: 2.5 μM, 24 hours, vs DMSO; for LDH assay positive, hESCs: Table 1
Method: The hESC line H9 was purchased from WiCells (Madison, WI, USA)^27. Another hESC line, HUES6, was kindly provided by Dr. Douglas A. Melton (Harvard University, Boston, MA, USA)^28. Cells were maintained on the feeder cells and cultured in Dulbecco's modified Eagle's medium (DMEM)/F12 supplemented with 20% knockout serum replacement, 2 mM L-glutamine, 1% nonessential amino acids, 4 ng/mL human bFGF, and 0.1 mM 2-mercaptoethanol. For the feeder cells culture, C57BL/6 mouse embryonic fibroblasts (MEF) were cultured in the DMEM with 10% FBS and treated cells with 0.01 mg/ml mitomycin C 2-6 hours for inactivation. For the feeder-free culture, hESCs were seeded on the Matrigel Matrix (BD Biosciences, San Jose, CA, USA) coated culture plates and maintained by conditioned medium of MEF (C57BL/6). hBMMSCs were cultured in mesenPRO RS™ kit (Life Technologies, Camarillo, CA, USA). All cells were cultured in a humidified atmosphere containing 5% CO2 at 37° C.
as §1

hESCs = experiment: Alamar blue assay, hESCs; type: cell-based, human; conditions: FIG. 12
Method: Alamar blue assay measured the relative cell number. In the cells, we added 1/10 of Alamar Blue Viability Assay reagent to the total volume of the mixture (Biotium; Fremont, CA, USA). The cells were incubated overnight at 37° C. The resulted were quantified by the measurement of optical density (OD) absorbance values at 570 nm and 600 nm, and the relative cell number was calculated.

PERK/AT4/DDIT3 pathway = conditions: through the PERK/AT4/DDIT3 pathway; literature; cited from earlier work
hPSCs teratoma formation = conditions: background, literature; cited from earlier work
hPSCs = conditions: background, literature; cited from earlier work

Row | SMILES | cytotoxicity (LDH release) in H9 hESC-MSCs (H9 hESC-MSCs) | LDH assay positive, hepatocyte endoderm cells [1] | LDH assay positive, hiPSCs (hiPSCs) | cytotoxic effect (LDH release) in hESCs (hESCs (H9)) | LDH assay positive, hESCs (hESCs (H9)) | cell death in hESCs (Alamar blue, relative cell number) (hESCs) | ER stress (PERK/AT4/DDIT3 pathway) | teratoma formation in hPSCs (hPSCs teratoma formation) | selective cell death (hPSCs)
1 | C[C@]12CC[C@H](O)C[C@H]1CC[C@@H]1[C@@H]2CC[C@]2(C)[C@@H](c3ccc(=O)oc3)CC[C@]12O [Bufalin, bufalin] | do not induce cytotoxicity | −/+ (10% positive cells) | +++ (more than 70% positive cells) | induced cytotoxicity | +++ (more than 70% positive cells) |  |  |  | 
2 | C[C@]12CC[C@H](O)C[C@H]1CC[C@@H]1[C@@H]2CC[C@]2(C)[C@@H](C3=CC(=O)OC3)CC[C@]12O [Digitoxigenin, digitoxigenin] |  | −/+ (10% positive cells) | +++ (more than 70% positive cells) |  | +++ (more than 70% positive cells) | dose dependent manner |  |  | 
3 | C[C@H]1O[C@@H](O[C@H]2[C@@H](O)C[C@H](O[C@H]3[C@@H](O)C[C@H](O[C@H]4CC[C@@]5(C)[C@H](CC[C@@H]6[C@@H]5CC[C@]5(C)[C@@H](C7=CC(=O)OC7)CC[C@]65O)C4)O[C@@H]3C)O[C@@H]2C)C[C@H](O)[C@@H]1O [Digitoxin, digitoxin] |  | −/+ (10% positive cells) | +++ (more than 70% positive cells) |  | +++ (more than 70% positive cells) | dose dependent manner |  |  | 
4 | CCCCCCCCC(=O)NCc1ccccc1 [JC011] |  |  |  |  |  |  | induced ER stress |  | 
5 | C[C@@H]1O[C@@H](O[C@H]2C[C@@H](O)[C@]3(CO)[C@H]4[C@H](O)C[C@]5(C)[C@@H](C6=CC(=O)OC6)CC[C@]5(O)[C@@H]4CC[C@]3(O)C2)[C@H](O)[C@H](O)[C@H]1O [Ouabain, ouabain] |  | −/+ (10% positive cells) | +++ (more than 70% positive cells) |  | +++ (more than 70% positive cells) | dose dependent manner |  |  | 
6 | O=C(NNc1ccccc1)c1ccncc1 [PluriSin #1] |  |  |  |  |  |  |  | prevented teratoma formation | 
7 | C[C@@H]1O[C@@H](O[C@@H]2C=C3CC[C@@H]4[C@H](CC[C@]5(C)[C@@H](c6ccc(=O)oc6)CC[C@]45O)[C@@]3(C)CC2)[C@H](O)[C@H](O)[C@H]1O [Proscillaridin A, proscillaridin A] | do not induce cytotoxicity | −/+ (10% positive cells) | +++ (more than 70% positive cells) | induced cytotoxicity | +++ (more than 70% positive cells) | dose dependent manner |  |  | 
8 | COCCn1c2c([n+](Cc3cnccn3)c1C)C(=O)c1ccccc1C2=O [YM155] |  |  |  |  |  |  |  | efficiently inhibited teratoma formation | induced selective cell death
9 | O=c1c(O)c(-c2ccc(O)c(O)c2)oc2cc(O)cc(O)c12 [quercetin] |  |  |  |  |  |  |  | efficiently inhibited teratoma formation | induced selective cell death
